Assay results from ChEMBL document CHEMBL1201862, “PubChem BioAssay data set” (2004).
Calls of active or inactive are those of the source.

Key:
[1] = target: Cyclin-dependent kinase 19 (Homo sapiens, UniProt Q9BWU1); test: Navigating the Kinome. Panel member name: CDC2L6; type: functional
[2] = target: Cell division cycle 7-related protein kinase (Homo sapiens, UniProt O00311); type: functional;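 note: value obtained from a kinome-wide kinase panel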
HEK293 [3] = test: optical interference in Abeta FP readout, dose response, artefact control for IDE activator project, biochemical, fluorescence polarization (AID 588442); type: functional, cell-based; details: Homo sapiens
HEK293 [4] = test: HEK cell cytotoxicity by LDH release, dose response, cytotoxicity control for IDE activator project, fluorescence, HEK cells (AID 588440); type: functional, cell-based; details: Homo sapiens;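 note: cytotoxicity by LDH release measuring loss of membrane integrity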
Insulin-degrading enzyme [5] = target: T1, Insulin-degrading enzyme (Homo sapiens, UniProt P14735); test: activators of recombinant IDE enzyme, dose response, counter-screen for IDE activator project, biochemical, fluorescence polarization (AID 588681)
T1 sequence (P14735 whole entry): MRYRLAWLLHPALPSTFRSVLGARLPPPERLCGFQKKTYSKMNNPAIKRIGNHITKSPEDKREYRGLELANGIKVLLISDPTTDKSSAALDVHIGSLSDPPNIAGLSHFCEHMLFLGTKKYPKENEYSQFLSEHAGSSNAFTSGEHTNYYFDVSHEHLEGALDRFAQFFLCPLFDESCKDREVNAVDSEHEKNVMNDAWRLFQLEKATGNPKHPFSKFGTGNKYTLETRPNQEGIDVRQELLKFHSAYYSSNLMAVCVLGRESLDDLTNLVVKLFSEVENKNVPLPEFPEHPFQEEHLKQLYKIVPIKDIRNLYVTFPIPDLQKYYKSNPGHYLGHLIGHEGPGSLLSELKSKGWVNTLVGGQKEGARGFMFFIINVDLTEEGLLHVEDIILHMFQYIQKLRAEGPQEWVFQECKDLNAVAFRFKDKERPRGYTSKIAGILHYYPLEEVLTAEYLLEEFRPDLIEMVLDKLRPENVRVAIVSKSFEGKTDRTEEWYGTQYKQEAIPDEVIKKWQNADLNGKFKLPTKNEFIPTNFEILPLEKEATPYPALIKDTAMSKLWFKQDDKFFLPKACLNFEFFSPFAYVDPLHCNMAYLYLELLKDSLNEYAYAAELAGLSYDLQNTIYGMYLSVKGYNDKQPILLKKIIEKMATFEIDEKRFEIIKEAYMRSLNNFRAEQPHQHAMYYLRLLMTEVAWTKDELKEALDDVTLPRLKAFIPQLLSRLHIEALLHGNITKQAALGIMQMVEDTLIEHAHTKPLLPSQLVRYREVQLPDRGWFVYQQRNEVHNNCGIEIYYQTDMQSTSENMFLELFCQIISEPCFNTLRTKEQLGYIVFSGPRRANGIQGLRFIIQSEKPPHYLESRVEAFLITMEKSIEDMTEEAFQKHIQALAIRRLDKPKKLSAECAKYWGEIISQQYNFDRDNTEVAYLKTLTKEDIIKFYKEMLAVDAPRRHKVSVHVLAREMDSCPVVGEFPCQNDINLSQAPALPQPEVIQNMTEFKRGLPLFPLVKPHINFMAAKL

Insulin-degrading enzyme [6] = target: T1, Insulin-degrading enzyme; test: activators of endogenous IDE in HEK cells, dose response, cell-based, fluorescence polarization (AID 588439); type: functional
CHO = test: cytotoxicity in TLR9-MyD88 CHO cells, dose response, cytotoxicity control for TLR9-MyD88 binding inhibitor project, cell-based, luminescence (AID 588339); type: functional, hamster; details: Cricetulus griseus;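 note: CHO cells stably coexpressing TLR9 and MyD88 fusions from primary screen; compound exposure lasted 48 hours before viability readout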
Caspase-7 = target: T2, Caspase-7 (Homo sapiens, UniProt P55210); test: procaspase-7 activators, dose response, dual procaspase-3/-7 activator project, biochemical, absorbance, human (AID 504330)
T2 sequence (P55210 whole entry): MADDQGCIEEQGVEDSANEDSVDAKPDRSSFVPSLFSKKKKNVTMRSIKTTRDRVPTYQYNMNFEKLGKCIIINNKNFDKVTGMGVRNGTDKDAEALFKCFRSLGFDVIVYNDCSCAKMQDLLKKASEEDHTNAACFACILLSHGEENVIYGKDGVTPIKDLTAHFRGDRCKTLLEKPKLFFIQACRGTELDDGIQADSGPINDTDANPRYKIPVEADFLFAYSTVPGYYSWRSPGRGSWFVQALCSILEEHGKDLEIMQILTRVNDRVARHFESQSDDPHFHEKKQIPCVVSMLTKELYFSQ

Beta Lactamase = Beta Lactamase (Pseudomonas aeruginosa, UniProt Q932Y6); test: beta-lactamase reporter inhibitor potency, dose response, artefact control for TLR9-MyD88 binding inhibitor project, BLA reporter cells, FRET fluorescence (AID 588341); type: cell-based;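 note: cell based assay in CHO-K1 cells stably expressing beta-lactamase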
Beta Lactamase, sequence (Q932Y6 whole entry): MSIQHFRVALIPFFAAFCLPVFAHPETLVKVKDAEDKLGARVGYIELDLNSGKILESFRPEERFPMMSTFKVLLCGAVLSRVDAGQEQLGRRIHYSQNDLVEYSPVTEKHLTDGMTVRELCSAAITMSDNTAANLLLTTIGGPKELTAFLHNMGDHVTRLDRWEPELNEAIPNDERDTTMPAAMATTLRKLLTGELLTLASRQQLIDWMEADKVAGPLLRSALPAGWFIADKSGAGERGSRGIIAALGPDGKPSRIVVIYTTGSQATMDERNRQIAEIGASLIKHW

Caspase-3 = target: T3, Caspase-3 (Homo sapiens, UniProt P42574); test: procaspase-3 activation potency of dual hits, dose response, counter-screen for dual procaspase-3/7 activator project, biochemical, absorbance, PC-3 D3A mutant (AID 504328)
T3 sequence (P42574 whole entry): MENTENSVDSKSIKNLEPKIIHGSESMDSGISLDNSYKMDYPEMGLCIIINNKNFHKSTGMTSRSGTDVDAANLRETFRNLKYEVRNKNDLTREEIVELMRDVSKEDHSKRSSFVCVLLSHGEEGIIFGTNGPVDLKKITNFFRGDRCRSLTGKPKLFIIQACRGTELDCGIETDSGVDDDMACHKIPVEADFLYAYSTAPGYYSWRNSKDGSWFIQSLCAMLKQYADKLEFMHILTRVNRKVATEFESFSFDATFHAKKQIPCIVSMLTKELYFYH

[7] = target: T4, Orexin/Hypocretin receptor type 1 (Homo sapiens, UniProt O43613); test: (§1) Fluorescence-based cell-based high throughput dose response assay for antagonists of the orexin 1 receptor (OX1R; HCRTR1). [Related pubchem assays (depositor defined):AID434989, AID435008, AID463079, AID485270, AID492963, AID492964, AID492965, AID493232, AID504717, AID504718]; type: functional
T4 sequence (O43613 whole entry): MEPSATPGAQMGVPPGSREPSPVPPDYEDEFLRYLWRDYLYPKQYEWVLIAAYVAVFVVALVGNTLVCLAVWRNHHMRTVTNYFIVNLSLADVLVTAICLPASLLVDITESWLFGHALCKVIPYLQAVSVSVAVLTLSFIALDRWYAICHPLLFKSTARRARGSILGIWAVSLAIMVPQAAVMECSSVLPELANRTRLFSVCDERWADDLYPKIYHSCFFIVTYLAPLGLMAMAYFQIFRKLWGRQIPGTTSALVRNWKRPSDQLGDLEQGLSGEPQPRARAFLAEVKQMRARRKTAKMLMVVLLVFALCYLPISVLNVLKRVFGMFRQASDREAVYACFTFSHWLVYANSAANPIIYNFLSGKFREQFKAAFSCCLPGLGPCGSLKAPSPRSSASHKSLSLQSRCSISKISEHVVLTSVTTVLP

[8] = (§2) Counterscreen for antagonists of the orexin 1 receptor (OX1R; HCRTR1): Fluorescence-based cell-based high throughput dose response assay to identify antagonists of the parental CHO cell line. [Related pubchem assays (depositor defined):AID434989, AID435008, AID463079, AID485270, AID492963, AID492964, AID492965, AID493232, AID504699, AID504701]; type: functional
Orexin receptor type 2 [9] = target: T5, Orexin receptor type 2 (Homo sapiens, UniProt O43614); test: Counterscreen assay for antagonists of the orexin 1 receptor (OX1R; HCRTR1): Fluorescence-based cell-based dose response assay for antagonists of the orexin 2 receptor (OX2R; HCRTR2), run by assay provider.; type: functional
T5 sequence (O43614 whole entry): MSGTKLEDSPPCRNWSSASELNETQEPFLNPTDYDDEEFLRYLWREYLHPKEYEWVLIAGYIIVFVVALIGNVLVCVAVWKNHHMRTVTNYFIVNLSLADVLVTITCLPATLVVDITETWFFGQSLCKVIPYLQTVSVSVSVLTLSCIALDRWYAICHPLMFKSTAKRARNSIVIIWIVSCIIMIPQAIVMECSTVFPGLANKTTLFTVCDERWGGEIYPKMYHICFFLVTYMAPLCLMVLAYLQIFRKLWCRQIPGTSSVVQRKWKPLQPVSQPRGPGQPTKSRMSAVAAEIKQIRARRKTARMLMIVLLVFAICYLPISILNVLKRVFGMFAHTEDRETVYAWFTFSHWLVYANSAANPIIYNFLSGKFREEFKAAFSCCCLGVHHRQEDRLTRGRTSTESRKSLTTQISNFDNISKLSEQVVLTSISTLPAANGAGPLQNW

CHO-K1 = test: as §2, with “Homogeneous time resolved fluorescence (HTRF)-based” for “Fluorescence-based”, “cell-based” for “cell-based high throughput”, “CHO-K1” for “CHO”; type: functional; details: Cricetulus griseus;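 note: potency for inhibition of ATP-stimulated IP1 production as antagonists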
[10] = target: T4, Orexin/Hypocretin receptor type 1; test: as §1, with “Homogeneous Time Resolved Fluorescence (HTRF)-based” for “Fluorescence-based”; type: functional
Orexin receptor type 2 [11] = target: T5, Orexin receptor type 2; test: Counterscreen assay for antagonists of the orexin 1 receptor (OX1R; HCRTR1): Homogeneous Time Resolved Fluorescence (HTRF)-based cell-based dose response assay for antagonists of the orexin 2 receptor (OX2R; HCRTR2), run by assay provider.; type: functional
[12] = target: Serine/threonine-protein kinase TAO1 (Homo sapiens, UniProt Q7L7X3); type: functional
[13] = target: Casein kinase I isoform alpha (Homo sapiens, UniProt P48729); type: functional
Casein kinase I isoform alpha, sequence (P48729 whole entry, canonical isoform): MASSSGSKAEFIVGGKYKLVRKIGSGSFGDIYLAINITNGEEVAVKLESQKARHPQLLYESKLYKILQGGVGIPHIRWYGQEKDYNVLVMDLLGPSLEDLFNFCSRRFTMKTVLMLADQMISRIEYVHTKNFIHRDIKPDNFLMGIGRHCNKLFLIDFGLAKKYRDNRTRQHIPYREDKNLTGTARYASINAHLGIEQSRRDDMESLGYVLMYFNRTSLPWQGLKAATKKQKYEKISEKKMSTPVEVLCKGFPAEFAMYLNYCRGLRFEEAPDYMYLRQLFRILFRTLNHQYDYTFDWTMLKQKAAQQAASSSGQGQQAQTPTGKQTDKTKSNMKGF

[14] = target: Cyclin-dependent kinase 8 (Homo sapiens, UniProt P49336); test: Navigating the Kinome. Panel member name: CDK8; type: functional
Cyclin-dependent kinase 8, sequence (P49336 whole entry): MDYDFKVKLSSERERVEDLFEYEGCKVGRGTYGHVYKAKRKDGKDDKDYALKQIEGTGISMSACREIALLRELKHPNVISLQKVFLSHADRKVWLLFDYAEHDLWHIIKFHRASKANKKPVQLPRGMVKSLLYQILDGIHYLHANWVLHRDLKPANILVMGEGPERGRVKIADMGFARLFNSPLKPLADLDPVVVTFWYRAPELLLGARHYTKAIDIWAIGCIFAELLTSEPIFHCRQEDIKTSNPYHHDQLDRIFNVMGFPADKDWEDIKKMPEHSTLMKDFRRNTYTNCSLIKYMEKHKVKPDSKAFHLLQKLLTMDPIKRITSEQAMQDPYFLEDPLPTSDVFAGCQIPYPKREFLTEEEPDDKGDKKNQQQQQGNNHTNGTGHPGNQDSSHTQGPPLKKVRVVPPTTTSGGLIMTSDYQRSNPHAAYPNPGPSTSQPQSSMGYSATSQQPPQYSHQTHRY

[15] = target: Cyclin-dependent kinase 5 (Homo sapiens, UniProt Q00535); type: functional;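 note: CDK5 measured as one member of a kinase profiling panel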
Cyclin-dependent kinase 5, sequence (Q00535 whole entry): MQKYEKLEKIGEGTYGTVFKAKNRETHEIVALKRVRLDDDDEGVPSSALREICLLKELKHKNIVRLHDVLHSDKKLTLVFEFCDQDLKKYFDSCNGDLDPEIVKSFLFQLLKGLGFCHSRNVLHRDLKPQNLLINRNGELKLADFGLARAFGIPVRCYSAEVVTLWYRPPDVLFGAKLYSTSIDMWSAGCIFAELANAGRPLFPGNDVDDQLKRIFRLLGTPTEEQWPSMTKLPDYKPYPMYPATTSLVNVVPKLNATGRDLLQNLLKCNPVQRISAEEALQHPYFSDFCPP

[16] = THP-1 cell cytotoxicity, dose response, cytotoxicity control for non-replicating M. tuberculosis project (AID 489025); type: functional
[17] = microbe, parasite or virus in culture; type: functional; details: Mycobacterium tuberculosis
[18] = Vero cell cytotoxicity, cytotoxicity control for M. tuberculosis inhibitor project, purified and synthesized samples, set 3 (AID 504684); type: functional
[19] = Shn3 3'UTR reporter inhibitors, dose response, cell-based, Clone20 osteoblasts, firefly luciferase, cherry-picked (AID 624132); type: functional;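 note: firefly luciferase luminescence from reporter carrying the Shn3 3'UTR in osteoblasts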
[20] = A Cell Based Secondary Assay to Explore Cytotoxicity in THP-1 Cells of Compounds that Modulate Mycobacterium tuberculosis in Media Containing Glycerol versus Media without Glycerol (2).; type: functional
[21] = control 3'UTR Renilla luciferase suppression, dose response, counter-screen for Shn3 inhibitor project, cell-based, Clone20-Shn3RL, cherry-picked (AID 624133); type: functional
[22] = A Cell Based Secondary Assay to Explore Cytotoxicity in HepG2 Cells of Compounds that Modulate Mycobacterium tuberculosis in Media Containing Glycerol versus Media without Glycerol (2).; type: functional
[23] = Vero E6 cell cytotoxicity, dose response, cytotoxicity control for non-replicating M. tuberculosis project, secondary assay (AID 492998); type: functional, VeroE6; details: Vero C1008
cells = type: functional
[24] = target: DNA dC->dU-editing enzyme APOBEC-3G (Homo sapiens, UniProt Q9HC16); test: APOBEC3G deaminase inhibitors, SAR follow-up, biochemical, fluorescence, single-stranded DNA substrate (AID 602136); type: functional; details: read-out: IC50_Mean
DNA dC->dU-editing enzyme APOBEC-3G, sequence (Q9HC16 whole entry): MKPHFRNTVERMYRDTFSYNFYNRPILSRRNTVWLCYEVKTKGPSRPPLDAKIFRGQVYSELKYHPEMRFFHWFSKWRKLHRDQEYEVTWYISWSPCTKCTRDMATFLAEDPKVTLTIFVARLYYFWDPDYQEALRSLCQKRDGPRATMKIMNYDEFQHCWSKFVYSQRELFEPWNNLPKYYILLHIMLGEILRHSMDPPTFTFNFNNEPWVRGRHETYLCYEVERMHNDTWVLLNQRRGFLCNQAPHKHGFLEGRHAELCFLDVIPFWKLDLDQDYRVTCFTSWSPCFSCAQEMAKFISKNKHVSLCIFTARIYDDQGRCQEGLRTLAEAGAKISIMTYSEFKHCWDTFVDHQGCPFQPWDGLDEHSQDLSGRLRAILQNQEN

[25] = target: DNA dC->dU-editing enzyme APOBEC-3A (Homo sapiens, UniProt P31941); test: SAR analysis of small molecule inhibitors of APOBEC3A DNA Deaminase via a fluorescence-based single-stranded DNA deaminase assay.; type: functional; details: read-out: IC50_Mean
DNA dC->dU-editing enzyme APOBEC-3A, sequence (P31941 whole entry): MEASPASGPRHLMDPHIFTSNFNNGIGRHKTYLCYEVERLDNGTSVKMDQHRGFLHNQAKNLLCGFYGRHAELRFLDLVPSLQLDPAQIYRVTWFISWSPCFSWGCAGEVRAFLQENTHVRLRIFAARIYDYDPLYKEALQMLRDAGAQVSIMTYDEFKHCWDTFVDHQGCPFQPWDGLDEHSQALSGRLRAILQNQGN

[26] = target: Neuropeptides B/W receptor type 1 (Homo sapiens, UniProt P48145); test: GPR7 antagonist potency, late-stage follow-up, cell-based, fluorescence, dose response, set 6 (AID 588583); type: functional
Neuropeptides B/W receptor type 1, sequence (P48145 whole entry): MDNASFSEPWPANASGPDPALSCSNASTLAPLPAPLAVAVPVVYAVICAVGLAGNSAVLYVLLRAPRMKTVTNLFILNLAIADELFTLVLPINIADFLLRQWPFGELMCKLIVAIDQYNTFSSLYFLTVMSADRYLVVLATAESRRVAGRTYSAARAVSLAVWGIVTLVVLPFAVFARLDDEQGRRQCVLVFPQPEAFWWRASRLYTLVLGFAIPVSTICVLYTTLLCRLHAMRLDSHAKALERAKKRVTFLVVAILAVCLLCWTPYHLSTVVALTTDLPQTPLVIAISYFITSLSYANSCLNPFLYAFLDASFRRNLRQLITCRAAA

[27] = target: Melanin-concentrating hormone receptor 1 (Homo sapiens, UniProt Q99705); test: Late-stage fluorescence-based counterscreen for antagonists of the G-protein coupled receptor 7 (GPR7): cell-based dose response assay to identify antagonists of the melanin-concentrating hormone receptor 1 (MCHR1) Set 6.; type: functional
Melanin-concentrating hormone receptor 1, sequence (Q99705 whole entry): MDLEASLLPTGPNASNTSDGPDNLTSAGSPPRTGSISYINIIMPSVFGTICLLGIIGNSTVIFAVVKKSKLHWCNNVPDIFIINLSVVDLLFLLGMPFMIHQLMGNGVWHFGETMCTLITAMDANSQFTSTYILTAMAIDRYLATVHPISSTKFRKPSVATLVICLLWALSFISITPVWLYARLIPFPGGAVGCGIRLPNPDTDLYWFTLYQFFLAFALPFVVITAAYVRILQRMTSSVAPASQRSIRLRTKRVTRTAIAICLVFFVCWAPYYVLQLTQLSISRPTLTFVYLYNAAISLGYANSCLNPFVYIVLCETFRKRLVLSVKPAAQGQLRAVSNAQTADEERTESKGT

Cyclin-dependent kinase 19, sequence (Q9BWU1 whole entry): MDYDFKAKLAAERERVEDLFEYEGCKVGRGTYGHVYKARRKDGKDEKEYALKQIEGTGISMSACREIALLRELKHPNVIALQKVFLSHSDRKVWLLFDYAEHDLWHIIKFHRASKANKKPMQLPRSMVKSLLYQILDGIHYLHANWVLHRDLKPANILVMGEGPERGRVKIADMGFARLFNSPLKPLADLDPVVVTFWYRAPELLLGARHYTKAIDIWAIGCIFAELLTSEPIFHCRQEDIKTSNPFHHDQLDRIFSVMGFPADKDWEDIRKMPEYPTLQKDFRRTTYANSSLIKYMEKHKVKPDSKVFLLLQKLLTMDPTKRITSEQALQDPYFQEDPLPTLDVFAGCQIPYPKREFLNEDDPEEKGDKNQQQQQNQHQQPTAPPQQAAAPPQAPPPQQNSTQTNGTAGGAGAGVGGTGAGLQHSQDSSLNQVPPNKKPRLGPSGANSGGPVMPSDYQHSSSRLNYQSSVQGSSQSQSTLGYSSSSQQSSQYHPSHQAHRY

With `O=C(O)c1ccccc1Nc1ccnc(NCc2ccccc2)n1` the Ki [1] was > 100 µM (inactive) and the Ki [2] was 0.0501 µM (active).
For `Cc1ccc(S(=O)(=O)/N=C/c2cc(Br)ccc2O)cc1`, the EC50 (HEK293 [3]) was > 54.7 µM (inactive), the IC50 (HEK293 [4]) was > 89.1 µM (inactive) and the EC50 (Insulin-degrading enzyme [5]) was > 54.7 µM (inactive). The EC50 (Insulin-degrading enzyme [6]) was > 54.7 µM (inactive).
In the case of `COc1ccccc1N1C(=O)C2C(C(=O)c3ccccc3)=NN(c3ccccc3)C2C1=O` (stereo not drawn), the IC50 (CHO) is reported as > 49.8 µM (inactive), the EC50 (Caspase-7) is reported as > 85.3 µM (inactive) and the IC50 (Beta Lactamase) is reported as 9.37 µM (active). The EC50 (Caspase-3) was > 85.3 µM (inactive).
In the case of `CSc1cccc(NC(=O)C2CCCN2S(=O)(=O)c2ccc(Br)s2)c1` (stereo not drawn), the IC50 [7] is reported as 0.8 µM (active), the IC50 [8] is reported as 27.8 µM (inactive) and the IC50 (Orexin receptor type 2 [9]) is reported as 0.4 µM (active). The IC50 (CHO-K1) was > 66.2 µM (inactive), the IC50 [10] was 0.0933 µM (active) and the IC50 (Orexin receptor type 2 [11]) was 0.34 µM (active).
For `CC(C)(C)c1cc(NC(=O)C(=O)c2cccc3ccccc23)n(-c2ccc(OCCC(N)=O)cc2)n1`, the Ki [12] was > 6.31 µM (inactive), the Ki [13] was 3.98 µM (active) and the Ki [14] was 2 µM (active). For the same compound, the Ki [15] was 1.58 µM (active).
For `Cc1ccc2c(c1)/C(=C1\C(=O)Nc3ccccc31)C(=O)N2C`, the CC50 [16] was 27 µM (active), the CC50 [17] was 16.3 µM (active) and the CC50 [18] was 4.55 µM (active). The AC50 [19] was 8.85 µM (active), the CC50 [20] was 13.4 µM (active) and the AC50 [21] was 12.1 µM (active). The CC50 [22] was 12.9 µM (active), the CC50 [23] was 4.76 µM (active) and the IC50 (cells) was 1.89 µM (active).
With `COc1cc2c(c3oc(=O)c4c(c13)CCC4)C=CC(C)(C)O2` the IC50 [24] was > 99 µM (inactive) and the IC50 [25] was > 99 µM (inactive).
In the case of `CC(C)(C)OC(=O)C(C#N)c1c(Cl)cnn(Cc2cccc3ccccc23)c1=O` (stereo not drawn), the IC50 [26] is reported as 0.682 µM (active) and the IC50 [27] is reported as 0.682 µM (active).
